Measured values taken from patent publication US20260199368A1, “[…] SYSTEM CONTAINING REMIMAZOLAM” (LTS LOHMANN THERAPIE-SYSTEME AG, priority 2022, published 2026).

Experiments:
[1] = pH and appearance of permeation donor solutions; format: physicochemical; settings: Artificial Saliva
Method: The permeated amount and the corresponding mucosa permeation rates of the oromucosal delivery system prepared according to Examples 2a were determined by in vitro experiments in accordance with the OECD Guideline (adopted Apr. 13, 2004) using pig mucosa with a thickness of 400 μm (mucosa oesophagus). The donor solutions were prepared by dissolving a sample film of Example 2a with a size of 5.75 cm^2 either in 5 ml artificial saliva or in 5 ml 0.9% NaCl. The remimazolam besylate was dissolved in artificial saliva so that the applied dose of RMZ was equivalent to an oromucosal delivery system containing 50 mg remimazolam in 500 μL medium, and the pH of the mixture was adjusted as indicated in Table 19. The pH was measured using a pH electrode. The permeation donor solutions were directly applied to the mucosa (diffusion area of 4.524 cm^2). The remimazolam permeated amount in the receptor medium (phosphate buffer solution pH 7.4) at a temperature of 37±1° C. was measured and the corresponding mucosa permeation rate calculated.
Due to the high variability in permeation run 1 (n=3), a second permeation experiment was performed with more replicates (n=6) to enlarge the data basis. The samples used are defined in table 15. Example 2a and Lyophilizate were dissolved in artificial saliva and 0.9% NaCl, respectively. Due to a pH adjustment in the lyophilizate/drug product, the resulting pH was slightly lower (pH 3.14 and pH 3.09) than with the Example 2a without pH adjustment (pH 3.67 and pH 3.50). A RMZ sample set to pH 3 served as a control.

[2] = In vivo studies using Goettingen minipigs: RMZ and CNS7054 plasma pharmacokinetics and bioavailability; settings: IV, 10 mg
Method: In order to assess the pharmacokinetic profile and effect of buccally administered oromucosal delivery systems containing remimazolam besylate, in vivo experiments using Goettingen minipigs (female, about 3 months old, body weight was 7 kg at the start of the study) were conducted. Three minipigs were used. A single oromucosal delivery system of Examples 1c (foam) and 1d (hotmelt), prepared as described above, with a nominal amount of 20 mg remimazolam (formulated as 27.2 mg nominal remimazolam besylate), was used per animal (with the exception of animal No 3 in Phase 1, where only half of an oromucosal delivery system of each type was placed in each side). The oromucosal delivery system foam was cut into two pieces to fit on the buccal mucosa.
The dose was given by buccal administration (oromucosal delivery system; hotmelt and foam) or IV administration (10 mg remimazolam formulated as remimazolam besylate according to the treatment schedule shown in table 9. No less than 48 hours were allowed between dosing occasions to allow for proper wash-out. The treatment with the oromucosal delivery systems was performed as follows: • 1. The animals were anaesthetized by mask with isoflurane to obtain sufficient depth of anesthesia to facilitate the placement of the oromucosal delivery system without stressing the animals. The length and concentration of isoflurane anesthesia was similar in all animals. • 2. The oromucosal delivery system was placed on the buccal mucosa. A small amount of saline was applied to the mucosa to facilitate the dissolution process on a single occasion in Phase 1. • 3. The mouth of the minipigs was closed for 1-2 minutes and then opened to check for completely dissolved oromucosal delivery system. If the oromucosal delivery system was not dissolved further checks were performed with intervals of 1-2 minutes, as required. • 4. The isoflurane treatment was stopped as soon as the oromucosal delivery system was dissolved.
In order to evaluate the bioavailability, the animals also received a single intravenous (IV) dose. The IV dose volume was administered as a bolus over a period of approximately 1 minute.
The RMZ IV dose formulation was prepared in glass containers. To prepare said formulation of nominal 5 mg/mL (stock solution), a drug product vial (50 mg of RZM powder) was reconstituted with 10 mL of 0.9% w/v sodium chloride solution. The reconstituted solutions of RMZ were clear and colorless to slightly yellow. The reconstituted RMZ drug product was used within 24 hours.
After each dosing in phase 2-4, blood samples were taken from all animals. Blood samples were collected at 8 time points following application of the oromucosal delivery systems. Samples were collected at the following time points: pre-treatment, and 2, 5, 10, 20, 40, 60 and 90 minutes post-treatment.
RMZ concentrations and CNS7054 concentrations in minipig plasma were determined using a validated liquid-liquid extraction followed by LC-MS/MS. All samples, collected before treatment start, were measured to be below the limit of quantification (0.100 ng/mL).
Individual plasma concentrations are listed in Table 13 and are graphically depicted in FIGS. 3a to 5b. Additionally, basic pharmacokinetic parameters such as maximal plasma concentration (cmax), time to reaching it (tmax) and exposure defined as Area Under the Curve (AUC0-t) are summarized in Table 13 for each individual animal for both RMZ and CNS7054 and following IV administration or administration of either of the two oromucosal delivery system formulations.
For the evaluation of the bioavailability (BA), dose-normalized cmax (cmax/D) and dose-normalized AUC (AUC0-t/D) were determined for the two oromucosal delivery system formulations for RMZ and CNS7054.

COC(=O)CC[C@@H]1N=C(c2ccccn2)c2cc(Br)ccc2-n2c(C)cnc21.O=S(=O)(O)c1ccccc1 [RMZ, remimazolam besylate]
Appearance of Donor Solution ([1]; run 1, set pH 2): Clear solution
Appearance of Donor Solution ([1]; run 1, set pH 3): Little RMZ solid
Appearance of Donor Solution ([1]; run 1, set pH 4.5): Much RMZ solid
Appearance of Donor Solution ([1]; run 1, set pH 6): Very much RMZ solid
Appearance of Donor Solution ([1]; run 2, set pH 3): Little RMZ solid
CNS7054 plasma concentration ([2]; Animal No 1, 1 min): 108 ng/mL
Remimazolam plasma concentration ([2]; Animal No 1, 1 min): 1032 ng/mL
CNS7054 plasma concentration ([2]; Animal No 1, 5 min): 224 ng/mL
Remimazolam plasma concentration ([2]; Animal No 1, 5 min): 767 ng/mL
CNS7054 plasma concentration ([2]; Animal No 1, 10 min): 283 ng/mL
Remimazolam plasma concentration ([2]; Animal No 1, 10 min): 389.5 ng/mL
CNS7054 plasma concentration ([2]; Animal No 1, 20 min): 423 ng/mL
Remimazolam plasma concentration ([2]; Animal No 1, 20 min): 285.5 ng/mL
CNS7054 plasma concentration ([2]; Animal No 1, 40 min): 406 ng/mL
Remimazolam plasma concentration ([2]; Animal No 1, 40 min): 149.3 ng/mL
CNS7054 plasma concentration ([2]; Animal No 1, 60 min): 329 ng/mL
Remimazolam plasma concentration ([2]; Animal No 1, 60 min): 76.1 ng/mL
CNS7054 plasma concentration ([2]; Animal No 1, 90 min): 302 ng/mL
Remimazolam plasma concentration ([2]; Animal No 1, 90 min): 40.6 ng/mL
CNS7054 AUC0-t ([2]; Animal No 1): 30508.5 ng·min/mL
CNS7054 cmax ([2]; Animal No 1): 423 ng/mL
CNS7054 tmax ([2]; Animal No 1): 20 min
Remimazolam AUC0-t ([2]; Animal No 1): 18349.25 ng·min/mL
Remimazolam cmax ([2]; Animal No 1): 1032 ng/mL
Remimazolam tmax ([2]; Animal No 1): 2 min
CNS7054 plasma concentration ([2]; Animal No 2, 1 min): 539 ng/mL
Remimazolam plasma concentration ([2]; Animal No 2, 1 min): 1244 ng/mL
CNS7054 plasma concentration ([2]; Animal No 2, 5 min): 707 ng/mL
Remimazolam plasma concentration ([2]; Animal No 2, 5 min): 432 ng/mL
CNS7054 plasma concentration ([2]; Animal No 2, 10 min): 851 ng/mL
Remimazolam plasma concentration ([2]; Animal No 2, 10 min): 469 ng/mL
CNS7054 plasma concentration ([2]; Animal No 2, 20 min): 783 ng/mL
Remimazolam plasma concentration ([2]; Animal No 2, 20 min): 208.8 ng/mL
CNS7054 plasma concentration ([2]; Animal No 2, 40 min): 508 ng/mL
Remimazolam plasma concentration ([2]; Animal No 2, 40 min): 52.6 ng/mL
CNS7054 plasma concentration ([2]; Animal No 2, 60 min): 267 ng/mL
CNS7054 plasma concentration ([2]; Animal No 2, 90 min): 170 ng/mL
CNS7054 AUC0-t ([2]; Animal No 2): 41688 ng·min/mL
CNS7054 cmax ([2]; Animal No 2): 851 ng/mL
CNS7054 tmax ([2]; Animal No 2): 10 min
Remimazolam AUC0-t ([2]; Animal No 2): 12539.5 ng·min/mL
Remimazolam cmax ([2]; Animal No 2): 1244 ng/mL
Remimazolam tmax ([2]; Animal No 2): 2 min
CNS7054 plasma concentration ([2]; Animal No 3, 1 min): 387 ng/mL
Remimazolam plasma concentration ([2]; Animal No 3, 1 min): 654 ng/mL
CNS7054 plasma concentration ([2]; Animal No 3, 5 min): 815 ng/mL
Remimazolam plasma concentration ([2]; Animal No 3, 5 min): 353.9 ng/mL
CNS7054 plasma concentration ([2]; Animal No 3, 10 min): 798 ng/mL
Remimazolam plasma concentration ([2]; Animal No 3, 10 min): 201 ng/mL
CNS7054 plasma concentration ([2]; Animal No 3, 20 min): 770 ng/mL
Remimazolam plasma concentration ([2]; Animal No 3, 20 min): 124.3 ng/mL
CNS7054 plasma concentration ([2]; Animal No 3, 40 min): 625 ng/mL
Remimazolam plasma concentration ([2]; Animal No 3, 40 min): 41.2 ng/mL
CNS7054 plasma concentration ([2]; Animal No 3, 60 min): 423 ng/mL
Remimazolam plasma concentration ([2]; Animal No 3, 60 min): 52.2 ng/mL
CNS7054 plasma concentration ([2]; Animal No 3, 90 min): 123 ng/mL
CNS7054 AUC0-t ([2]; Animal No 3): 46682.5 ng·min/mL
CNS7054 cmax ([2]; Animal No 3): 815 ng/mL
CNS7054 tmax ([2]; Animal No 3): 5 min
Remimazolam AUC0-t ([2]; Animal No 3): 8551.6 ng·min/mL
Remimazolam cmax ([2]; Animal No 3): 654 ng/mL
Remimazolam tmax ([2]; Animal No 3): 2 min
